From publication PMC8632694 (Frontiers in Pharmacology, 2021)
“Also recorded” adds a separate entry of the source. Read-outs that look alike come from different tables or passages of the source.

How the values were obtained:
[1] = human, in vivo
clinical = conditions: human, in vivo, AUCτ
CYP3A4 [2] = experiment: Estimated intestinal luminal concentration of vonoprazan compared with the CYP3A4 IC50; conditions: vonoprazan 20 mg orally administered
CYP3A4 [3] = tested on: CYP3A4; design: method as in Nishihara et al., 2019; HK inno.N Corp; conditions: in vitro; ref Nishihara et al., 2019; HK inno.N Corp; cited from earlier work
CYP3A4 [4] = experiment: CYP3A4 inhibition in vitro (literature values); type: biochemical; conditions: ref Nishihara et al., 2019, HK inno.N Corp
[5] = Serum gastrin, pepsinogen I and II levels pre-dose and 24 h after 7 days of administration; type: in vivo, human; conditions: co-administered with atorvastatin for 7 days; compared to the baseline
Excerpt: Error bars represent standard errors. The increase of serum levels in each intervention was compared to the intervention R. P-values were adjusted by Tukey-Kramer method; *p < 0.05; **p < 0.001.

OATP1B1 = conditions: cited from earlier work
[6] = Safety and tolerability: treatment-emergent adverse events by intervention; type: in vivo, human; conditions: for number of TEAEs (all) / number of subjects with TEAEs / percentage of subjects with TEAEs: per intervention (R1 31, R2 28, T 30, V 29 subjects), T and V co-administered with atorvastatin; for subjects who discontinued the study due to AEs: neutropenia in intervention T, blood creatine phosphokinase increased in intervention R
Procedure: Safety was assessed based on symptom reports, physical examinations, vital signs, 12-lead ECGs, and clinical laboratory tests (hematology, clinical chemistry, and urinalysis).

[7] = Steady-state plasma pharmacokinetics of atorvastatin, 2-hydroxyatorvastatin and atorvastatin lactone after atorvastatin 40 mg once daily for 7 days, alone or co-administered with tegoprazan 50 mg or vonoprazan 20 mg; conditions: for AUCτ / Css,max / Tss,max: N = 28; for AUCτ / Css,max / Metabolic ratio (AUCmetabolite/AUCatorvastatin): mean ± SD; for Css,max, GMR (90% CI): ratio of atorvastatin co-administered with tegoprazan to administered alone; for Tss,max: plasma, median (minimum-maximum)
[8] = when absorbed through the intestine; ref Lennernäs, 2003; cited from earlier work
[9] = TEAE, serum gastrin greater than 200 ng/L, intervention arm = label, co-administered with atorvastatin 40 mg, 7 days
[10] = TEAE, intervention arm = label, P-CAB arms co-administered with atorvastatin 40 mg, 7 days
[11] = Atorvastatin alone (N = 28 for each intervention), comparison with tegoprazan
[12] = Atorvastatin alone (N = 28 for each intervention), comparison with vonoprazan
[13] = Reference 1: first intervention, atorvastatin 40 mg alone 7 days
[14] = Reference 2: second intervention, atorvastatin 40 mg alone 7 days
[15] = atorvastatin 40 mg co-administered with tegoprazan 50 mg 7 days
[16] = atorvastatin 40 mg co-administered with vonoprazan 20 mg 7 days
[17] = atorvastatin co-administered with vonoprazan compared to atorvastatin alone

## CC(C)c1c(C(=O)Nc2ccccc2)c(-c2ccccc2)c(-c2ccc(F)cc2)n1CC[C@@H]1C[C@@H](O)CC(=O)O1 [Atorvastatin lactone, atorvastatin lactone]
[1]
  AUCτ, geometric least squares mean: 67.3 ng·h/mL
[1]; 40 mg
  AUCτ: 57.36 ± 28.51 ng·h/mL
clinical; 40 mg
  AUC: 61.1 ± 30.2 ng·h/mL
clinical; geometric least squares mean
  AUC: 52.1 ng·h/mL

## CNCc1cc(-c2ccccc2F)n(S(=O)(=O)c2cccnc2)c1 [Vonoprazan, vonoprazan]
CYP3A4 [2]; estimated, ref US Food and Drug Administration, 2020b
  intestinal luminal concentration: […]
CYP3A4 [2]
  intestinal luminal concentration relative to the CYP3A4 IC50 (fold higher): […]
CYP3A4 [3]
  IC50: […]
CYP3A4 [4]
  expected plasma concentration at clinical doses relative to the CYP3A4 IC50 (fold lower): […]
[5]
  increase in serum pepsinogen I: […]
  increase in serum pepsinogen II: […]
OATP1B1; in vitro study, ref Pharmaceuticals and Medical Devices Agency, 2014
  inhibition of OATP1B1: did not inhibit OATP1B1
[6]; TEAE, serum gastrin greater than 200 ng/L, intervention arm = label, P-CAB arms co-administered with atorvastatin 40 mg, 7 days
  Hypergastrinaemia: number of subjects: […]
[6]; [9]
  Hypergastrinaemia: percentage of subjects: 20.7%
[6]; [10]
  Blood bilirubin increased: number of events: 1
  Blood bilirubin increased: number of subjects: 1
  Dyspepsia: number of events: 2
  Dyspepsia: number of subjects: 2
  Headache: number of events: 2
  Headache: number of subjects: 2
  Neutrophil count decreased: number of events: 2
  Neutrophil count decreased: number of subjects: 2
  Pyuria: number of events: 2
  Pyuria: number of subjects: 2
[6]; across the interventions
  occurrence of hypergastrinemia (serum gastrin level greater than 200 ng/L): only occurred when atorvastatin was co-administered with vonoprazan
[6]
  number of TEAEs (all): 17
  percentage of subjects with TEAEs: 51.7%

## CC(C)c1c(C(=O)Nc2ccccc2O)c(-c2ccccc2)c(-c2ccc(F)cc2)n1CCC(O)CC(O)CC(=O)O (centres unmarked) [2-hydroxyatorvastatin]
[7]; [11]
  AUCτ, geometric least squares mean: 137.9 ng·h/mL
  Css,max, geometric least squares mean: 22.5 ng/mL
[7]; [12]
  AUCτ, geometric least squares mean: 138.2 ng·h/mL
  Css,max, geometric least squares mean: 22.7 ng/mL
[7]; [13]
  AUCτ: 152.04 ± 70.25 ng·h/mL
  Css,max: 24.95 ± 11.77 ng/mL
  Metabolic ratio (AUCmetabolite/AUCatorvastatin): 1.27 ± 0.52
[7]; [14]
  AUCτ: 144.35 ± 58.71 ng·h/mL
  Css,max: 25.72 ± 17.15 ng/mL
  Metabolic ratio (AUCmetabolite/AUCatorvastatin): 1.32 ± 0.55
[7]; With Tegoprazan (N = 28)
  AUCτ, geometric least squares mean: 144.8 ng·h/mL
  Css,max, geometric least squares mean: 23.8 ng/mL
[7]; With Vonoprazan (N = 28)
  AUCτ, geometric least squares mean: 125.1 ng·h/mL
  Css,max, geometric least squares mean: 15.91 ng/mL
[7]; [15]
  AUCτ: 156.46 ± 67.69 ng·h/mL
  Css,max: 26.34 ± 12.64 ng/mL
  Metabolic ratio (AUCmetabolite/AUCatorvastatin): 1.31 ± 0.47
[7]; [16]
  AUCτ: 135.57 ± 64.05 ng·h/mL
  Css,max: 18.19 ± 12.16 ng/mL
  Metabolic ratio (AUCmetabolite/AUCatorvastatin): 0.90 ± 0.32
[7]; [17]
  Decrease of AUCτ: 9%
  Decrease of Css,max: 30%
[7]
  Css,max, GMR (90% CI): 1.06 (0.95-1.17)

## CC(C)c1c(C(=O)Nc2ccccc2)c(-c2ccccc2)c(-c2ccc(F)cc2)n1CC[C@@H](O)C[C@@H](O)CC(=O)O [Reference 1, atorvastatin]
[6]; [10]
  Anaemia: number of events: 1
  Anaemia: number of subjects: 1
  Anaemia: percentage of subjects: 3.2%
  Blood bilirubin increased: number of events: 1
  Blood bilirubin increased: number of subjects: 1
  Blood bilirubin increased: percentage of subjects: 3.2%
  Ocular discomfort: number of events: 1
  Ocular discomfort: number of subjects: 1
  Ocular discomfort: percentage of subjects: 3.2%
  Pyuria: number of events: 1
  Pyuria: number of subjects: 1
  Pyuria: percentage of subjects: 3.2%
[6]
  number of TEAEs (all): Seven
  number of subjects with TEAEs: 6
  percentage of subjects with TEAEs: 19.4%

## Cc1nc2cc(C(=O)N(C)C)cc(O[C@H]3CCOc4cc(F)cc(F)c43)c2[nH]1 [Tegoprazan, tegoprazan]
CYP3A4 [3]
  IC50: > 30 µM
CYP3A4 [4]
  expected plasma concentration at clinical doses relative to the CYP3A4 IC50 (fold lower): 25 fold
[5]
  increase in serum pepsinogen I: 2.7 times
  increase in serum pepsinogen II: 2.2 times
  increase of serum gastrin: 1.2 times
OATP1B1; in vitro / non-clinical study, ref HK inno.N Corp
  inhibitory activity on OATP1B1: showed the inhibitory activity on some OATP1B1 substrates; also recorded: showed various inhibitory activities
[6]; [10]
  Blood bilirubin increased: number of events: 2
  Blood bilirubin increased: number of subjects: 2
  Blood bilirubin increased: percentage of subjects: 6.7%
  Neutrophil count decreased: number of events: 1
  Neutrophil count decreased: number of subjects: 1
  Neutrophil count decreased: percentage of subjects: 3.3%
  Ocular discomfort: number of events: 1
  Ocular discomfort: number of subjects: 1
  Ocular discomfort: percentage of subjects: 3.3%
  Pyuria: number of events: 1
  Pyuria: number of subjects: 1
  Pyuria: percentage of subjects: 3.3%
[6]
  subjects who discontinued the study due to AEs: 1
  number of TEAEs (all): Ten
  number of subjects with TEAEs: 7
  percentage of subjects with TEAEs: 23.3%

## CC(C)c1c(C(=O)Nc2ccccc2)c(-c2ccccc2)c(-c2ccc(F)cc2)n1CC[C@@H](O)C[C@@H](O)CC(=O)O [Reference 2, atorvastatin]
[6]; [10]
  Anaemia: number of events: 1
  Anaemia: number of subjects: 1
  Anaemia: percentage of subjects: 3.6%
  Blood bilirubin increased: number of events: 2
  Blood bilirubin increased: number of subjects: 2
  Blood bilirubin increased: percentage of subjects: 7.1%
  Pyuria: number of events: 1
  Pyuria: number of subjects: 1
  Pyuria: percentage of subjects: 3.6%
[6]; listed as intervention R2
  number of TEAEs (all): 8
  number of subjects with TEAEs: 7

## CC(C)c1c(C(=O)Nc2ccccc2)c(-c2ccccc2)c(-c2ccc(F)cc2)n1CC[C@@H](O)C[C@@H](O)CC(=O)O [Atorvastatin, atorvastatin]
[8]
  fraction of orally administered dose lost in the gut: 76%
[7]; [11]
  Css,max, geometric least squares mean: 32.4 ng/mL
[7]; [12]
  Css,max, geometric least squares mean: 32.4 ng/mL
[7]; [13]
  Css,max: 37.21 ± 19.65 ng/mL
[7]; Reference 1: first intervention, atorvastatin 40 mg alone once daily 7 days
  Tss,max: 0.75 (0.50–6.00) h
[7]; [14]
  Css,max: 37.37 ± 22.81 ng/mL
[7]; Reference 2: second intervention, atorvastatin 40 mg alone once daily 7 days
  Tss,max: 0.75 (0.50–3.00) h
[7]; With Tegoprazan (N = 28)
  Css,max, geometric least squares mean: 35.4 ng/mL
[7]; With Vonoprazan (N = 28)
  Css,max, geometric least squares mean: 37.9 ng/mL
[7]; [15]
  Css,max: 40.75 ± 21.52 ng/mL
[7]; atorvastatin 40 mg co-administered with tegoprazan 50 mg once daily 7 days
  Tss,max: 1.25 (0.50–3.00) h
[7]; [16]
  Css,max: 42.71 ± 25.76 ng/mL
[7]; atorvastatin 40 mg co-administered with vonoprazan 20 mg once daily 7 days
  Tss,max: 1.50 (0.50–4.00) h
[7]; atorvastatin co-administered with tegoprazan, not statistically significant
  Increase of Css,max: 9%
[7]; [17]
  Increase of Css,max: 17%
[7]
  Css,max, GMR (90% CI): 1.09 (0.97–1.23)
[7]; this study, multiple doses for 7 days (data not shown)
  within-subject CV of Css,max: 33.6%
[6]
  subjects who discontinued the study due to AEs: 1
